Assay [1] addresses T1, Muscarinic acetylcholine receptor M4 (Homo sapiens) (UniProt P08173).
T1 sequence (whole entry): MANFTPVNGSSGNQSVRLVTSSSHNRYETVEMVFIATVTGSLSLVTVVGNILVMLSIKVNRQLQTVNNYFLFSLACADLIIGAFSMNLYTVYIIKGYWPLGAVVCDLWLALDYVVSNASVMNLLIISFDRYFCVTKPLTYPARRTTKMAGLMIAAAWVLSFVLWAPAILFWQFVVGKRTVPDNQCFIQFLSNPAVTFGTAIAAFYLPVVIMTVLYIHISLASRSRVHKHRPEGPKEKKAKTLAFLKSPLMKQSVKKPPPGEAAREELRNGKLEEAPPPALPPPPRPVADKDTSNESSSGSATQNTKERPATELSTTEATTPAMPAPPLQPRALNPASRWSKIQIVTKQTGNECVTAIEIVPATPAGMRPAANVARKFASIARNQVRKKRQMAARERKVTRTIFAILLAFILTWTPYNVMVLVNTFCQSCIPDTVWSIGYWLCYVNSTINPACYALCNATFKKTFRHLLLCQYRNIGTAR
The settings on record: Compound concentration 10.0 uM.

Assay [2] has as its target Mitogen-activated protein kinase 8 (Homo sapiens) (UniProt P45983). As to the kind of experiment: MAPK8 SGC Tm panel (DSF). The settings on record: for ΔTm: Compound concentration 10.0 uM.
In assay [3] the target is Beta-1 adrenergic receptor (Homo sapiens) (UniProt P08588). The settings on record: Compound concentration 10.0 uM.
Beta-1 adrenergic receptor (Homo sapiens), sequence (P08588 whole entry, looked up): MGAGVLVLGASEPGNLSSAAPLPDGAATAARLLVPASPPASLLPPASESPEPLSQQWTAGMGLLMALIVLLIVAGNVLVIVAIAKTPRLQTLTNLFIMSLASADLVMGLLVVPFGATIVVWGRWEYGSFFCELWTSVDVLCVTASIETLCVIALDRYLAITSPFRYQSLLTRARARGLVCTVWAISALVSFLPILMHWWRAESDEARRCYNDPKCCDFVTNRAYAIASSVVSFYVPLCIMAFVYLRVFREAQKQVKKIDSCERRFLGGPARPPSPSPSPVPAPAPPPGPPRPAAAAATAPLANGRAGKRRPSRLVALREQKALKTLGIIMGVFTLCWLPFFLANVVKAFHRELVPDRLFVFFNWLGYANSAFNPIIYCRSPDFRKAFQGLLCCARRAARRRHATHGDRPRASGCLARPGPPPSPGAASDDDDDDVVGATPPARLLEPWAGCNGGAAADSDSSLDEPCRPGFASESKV
For assay [4], the target named is 5-hydroxytryptamine receptor 2B (Homo sapiens) (UniProt P41595). The settings on record: Compound concentration 10.0 uM.
5-hydroxytryptamine receptor 2B (Homo sapiens), sequence (P41595 whole entry): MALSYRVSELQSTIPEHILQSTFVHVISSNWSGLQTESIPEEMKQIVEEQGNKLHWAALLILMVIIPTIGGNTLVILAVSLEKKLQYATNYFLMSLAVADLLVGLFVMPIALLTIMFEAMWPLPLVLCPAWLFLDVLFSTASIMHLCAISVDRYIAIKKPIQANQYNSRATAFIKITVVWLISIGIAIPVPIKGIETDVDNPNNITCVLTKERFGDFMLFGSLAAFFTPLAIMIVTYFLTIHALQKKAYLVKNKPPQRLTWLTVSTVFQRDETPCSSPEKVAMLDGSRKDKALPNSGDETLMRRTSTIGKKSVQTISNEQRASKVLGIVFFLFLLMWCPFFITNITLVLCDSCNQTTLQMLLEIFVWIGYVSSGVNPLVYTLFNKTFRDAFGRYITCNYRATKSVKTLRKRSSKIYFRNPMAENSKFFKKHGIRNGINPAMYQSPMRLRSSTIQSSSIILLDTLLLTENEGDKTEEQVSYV
The target in assay [5] is T2, Serine/threonine-protein kinase Nek1 (Homo sapiens) (UniProt Q96PY6).
T2 sequence (whole entry): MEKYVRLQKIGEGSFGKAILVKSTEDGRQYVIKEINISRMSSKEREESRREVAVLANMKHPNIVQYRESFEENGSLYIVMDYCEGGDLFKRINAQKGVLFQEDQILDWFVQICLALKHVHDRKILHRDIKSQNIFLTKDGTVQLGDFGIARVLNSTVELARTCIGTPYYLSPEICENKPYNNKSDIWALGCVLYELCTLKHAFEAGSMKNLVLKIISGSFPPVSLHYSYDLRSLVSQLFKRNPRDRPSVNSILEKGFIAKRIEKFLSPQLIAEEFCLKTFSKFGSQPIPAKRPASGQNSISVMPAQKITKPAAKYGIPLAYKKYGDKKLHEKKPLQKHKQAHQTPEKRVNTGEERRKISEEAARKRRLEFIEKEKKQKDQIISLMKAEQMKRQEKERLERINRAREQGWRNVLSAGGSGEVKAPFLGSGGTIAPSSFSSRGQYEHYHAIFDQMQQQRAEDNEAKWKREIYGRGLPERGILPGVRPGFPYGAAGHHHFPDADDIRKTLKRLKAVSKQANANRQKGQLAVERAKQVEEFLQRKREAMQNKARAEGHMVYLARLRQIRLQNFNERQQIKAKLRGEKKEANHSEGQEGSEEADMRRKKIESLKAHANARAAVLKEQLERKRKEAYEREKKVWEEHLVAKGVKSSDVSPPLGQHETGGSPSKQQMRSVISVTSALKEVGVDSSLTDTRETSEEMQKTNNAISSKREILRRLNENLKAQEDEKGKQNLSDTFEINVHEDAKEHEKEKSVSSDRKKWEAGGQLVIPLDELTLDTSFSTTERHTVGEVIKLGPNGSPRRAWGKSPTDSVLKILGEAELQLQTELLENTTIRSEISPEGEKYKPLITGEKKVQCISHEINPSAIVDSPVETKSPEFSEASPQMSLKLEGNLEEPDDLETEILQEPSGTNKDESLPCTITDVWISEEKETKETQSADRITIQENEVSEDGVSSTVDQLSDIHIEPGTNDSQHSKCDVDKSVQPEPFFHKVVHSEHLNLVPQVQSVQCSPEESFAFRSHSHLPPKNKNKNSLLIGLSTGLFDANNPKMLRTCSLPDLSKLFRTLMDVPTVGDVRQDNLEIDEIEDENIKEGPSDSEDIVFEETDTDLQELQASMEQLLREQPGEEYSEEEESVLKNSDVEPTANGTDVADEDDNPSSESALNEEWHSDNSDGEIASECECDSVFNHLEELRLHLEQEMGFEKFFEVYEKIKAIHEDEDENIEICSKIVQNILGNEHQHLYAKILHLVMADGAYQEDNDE
Kind of assay: NEK1 SGC Tm panel (DSF). The settings on record: for ΔTm: Compound concentration 10.0 uM.

In assay [6] the target is MAP/microtubule affinity-regulating kinase 3 (Homo sapiens) (UniProt P27448). As to the kind of experiment: MARK3 SGC Tm panel (DSF). The settings on record: for ΔTm: Compound concentration 10.0 uM.
MAP/microtubule affinity-regulating kinase 3 (Homo sapiens), sequence (P27448 whole entry, looked up): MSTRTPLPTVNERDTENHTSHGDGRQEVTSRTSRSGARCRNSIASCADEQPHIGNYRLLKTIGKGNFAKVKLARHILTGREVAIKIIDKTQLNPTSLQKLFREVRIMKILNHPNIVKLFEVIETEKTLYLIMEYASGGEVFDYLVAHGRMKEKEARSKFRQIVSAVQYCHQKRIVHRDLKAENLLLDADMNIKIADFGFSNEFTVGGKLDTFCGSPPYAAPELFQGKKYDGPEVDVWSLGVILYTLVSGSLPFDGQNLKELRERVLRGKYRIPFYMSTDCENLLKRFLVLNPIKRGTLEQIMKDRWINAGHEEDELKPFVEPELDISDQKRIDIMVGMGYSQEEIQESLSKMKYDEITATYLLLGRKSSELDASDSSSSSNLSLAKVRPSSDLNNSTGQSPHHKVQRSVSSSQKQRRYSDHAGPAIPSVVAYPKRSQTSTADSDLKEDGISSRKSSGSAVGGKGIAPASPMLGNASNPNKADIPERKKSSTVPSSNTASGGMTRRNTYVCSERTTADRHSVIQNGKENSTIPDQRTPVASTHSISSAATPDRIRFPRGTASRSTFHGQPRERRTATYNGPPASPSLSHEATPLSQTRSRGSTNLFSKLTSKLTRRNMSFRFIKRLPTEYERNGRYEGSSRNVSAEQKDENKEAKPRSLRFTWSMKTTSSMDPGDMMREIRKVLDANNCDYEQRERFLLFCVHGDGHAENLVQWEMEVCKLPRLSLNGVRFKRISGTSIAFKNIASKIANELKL
Assay [7] concerns the target Calcium/calmodulin-dependent protein kinase type II subunit delta (Homo sapiens) (UniProt Q13557). As to the kind of experiment: CAMK2D SGC Tm panel (DSF). The settings on record: for ΔTm: Compound concentration 10.0 uM.
The target in assay [8] is Sigma intracellular receptor 2 (Homo sapiens) (UniProt Q5BJF2). The settings on record: Compound concentration 10.0 uM.
Sigma intracellular receptor 2 (Homo sapiens), sequence (Q5BJF2 whole entry): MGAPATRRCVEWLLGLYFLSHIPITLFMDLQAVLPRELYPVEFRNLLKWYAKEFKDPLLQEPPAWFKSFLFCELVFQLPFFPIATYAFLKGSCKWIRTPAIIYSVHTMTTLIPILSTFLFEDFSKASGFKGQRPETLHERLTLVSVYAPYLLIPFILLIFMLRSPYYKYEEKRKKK
The target in assay [9] is Fibroblast growth factor receptor 1 (Homo sapiens) (UniProt P11362). As to the kind of experiment: FGFR1 SGC Tm panel (DSF). The settings on record: for ΔTm: Compound concentration 10.0 uM.
Fibroblast growth factor receptor 1 (Homo sapiens), sequence (P11362 22-822 limits assumed): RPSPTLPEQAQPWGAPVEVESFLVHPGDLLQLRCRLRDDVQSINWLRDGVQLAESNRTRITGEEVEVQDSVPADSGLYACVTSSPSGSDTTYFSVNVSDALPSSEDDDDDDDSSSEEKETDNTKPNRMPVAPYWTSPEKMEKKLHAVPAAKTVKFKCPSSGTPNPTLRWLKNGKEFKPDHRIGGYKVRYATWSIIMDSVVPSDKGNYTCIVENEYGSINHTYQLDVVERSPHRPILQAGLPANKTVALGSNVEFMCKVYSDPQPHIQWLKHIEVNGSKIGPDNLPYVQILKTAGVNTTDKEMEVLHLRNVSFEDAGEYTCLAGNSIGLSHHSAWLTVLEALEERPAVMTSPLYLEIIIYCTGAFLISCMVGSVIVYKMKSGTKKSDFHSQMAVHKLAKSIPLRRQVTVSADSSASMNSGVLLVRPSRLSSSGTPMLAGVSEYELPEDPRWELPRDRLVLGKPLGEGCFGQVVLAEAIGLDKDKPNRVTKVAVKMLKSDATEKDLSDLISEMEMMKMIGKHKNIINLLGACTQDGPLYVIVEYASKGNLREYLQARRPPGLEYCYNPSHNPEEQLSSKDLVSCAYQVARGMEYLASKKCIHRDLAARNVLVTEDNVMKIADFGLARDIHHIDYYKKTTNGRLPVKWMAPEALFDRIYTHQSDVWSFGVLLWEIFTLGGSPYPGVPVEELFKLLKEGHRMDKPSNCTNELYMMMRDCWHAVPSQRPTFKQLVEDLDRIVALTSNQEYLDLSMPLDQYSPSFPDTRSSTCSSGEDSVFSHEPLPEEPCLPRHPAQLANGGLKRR
Assay [10] deals with Dual specificity protein kinase CLK3 (Homo sapiens) (UniProt P49761). Kind of assay: CLK3 SGC Tm panel (DSF). The settings on record: for ΔTm: Compound concentration 10.0 uM.
Dual specificity protein kinase CLK3 (Homo sapiens), sequence (P49761 whole entry, looked up): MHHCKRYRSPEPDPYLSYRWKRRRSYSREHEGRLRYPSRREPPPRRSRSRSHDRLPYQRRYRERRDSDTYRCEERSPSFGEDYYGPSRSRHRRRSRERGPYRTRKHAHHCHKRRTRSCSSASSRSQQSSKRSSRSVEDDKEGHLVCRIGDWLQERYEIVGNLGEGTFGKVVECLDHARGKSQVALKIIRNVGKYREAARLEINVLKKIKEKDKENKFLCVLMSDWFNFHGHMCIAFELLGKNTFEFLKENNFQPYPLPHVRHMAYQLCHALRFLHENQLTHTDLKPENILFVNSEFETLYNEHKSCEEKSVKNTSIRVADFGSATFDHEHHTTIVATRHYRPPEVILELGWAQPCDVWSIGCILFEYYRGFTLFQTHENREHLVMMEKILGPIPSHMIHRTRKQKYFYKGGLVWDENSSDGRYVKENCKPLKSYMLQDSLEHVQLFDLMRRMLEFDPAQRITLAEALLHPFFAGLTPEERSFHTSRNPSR
In assay [11] the target is T3, Alpha-2C adrenergic receptor (Homo sapiens) (UniProt P18825).
T3 sequence (whole entry): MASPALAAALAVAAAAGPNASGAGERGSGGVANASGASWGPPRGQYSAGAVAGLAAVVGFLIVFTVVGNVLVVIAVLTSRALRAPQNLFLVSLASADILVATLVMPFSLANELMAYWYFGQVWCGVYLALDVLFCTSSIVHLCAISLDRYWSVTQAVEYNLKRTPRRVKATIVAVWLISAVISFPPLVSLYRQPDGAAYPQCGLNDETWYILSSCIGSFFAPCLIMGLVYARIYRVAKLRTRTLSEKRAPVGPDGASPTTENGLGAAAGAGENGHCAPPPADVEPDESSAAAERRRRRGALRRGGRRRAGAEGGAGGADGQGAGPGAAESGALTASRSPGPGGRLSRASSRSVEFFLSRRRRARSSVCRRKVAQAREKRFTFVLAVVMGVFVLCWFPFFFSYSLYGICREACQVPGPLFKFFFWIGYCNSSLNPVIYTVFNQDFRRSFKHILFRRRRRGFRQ
The settings on record: Compound concentration 10.0 uM.

Calcium/calmodulin-dependent protein kinase type II subunit delta (Homo sapiens), sequence (Q13557 whole entry): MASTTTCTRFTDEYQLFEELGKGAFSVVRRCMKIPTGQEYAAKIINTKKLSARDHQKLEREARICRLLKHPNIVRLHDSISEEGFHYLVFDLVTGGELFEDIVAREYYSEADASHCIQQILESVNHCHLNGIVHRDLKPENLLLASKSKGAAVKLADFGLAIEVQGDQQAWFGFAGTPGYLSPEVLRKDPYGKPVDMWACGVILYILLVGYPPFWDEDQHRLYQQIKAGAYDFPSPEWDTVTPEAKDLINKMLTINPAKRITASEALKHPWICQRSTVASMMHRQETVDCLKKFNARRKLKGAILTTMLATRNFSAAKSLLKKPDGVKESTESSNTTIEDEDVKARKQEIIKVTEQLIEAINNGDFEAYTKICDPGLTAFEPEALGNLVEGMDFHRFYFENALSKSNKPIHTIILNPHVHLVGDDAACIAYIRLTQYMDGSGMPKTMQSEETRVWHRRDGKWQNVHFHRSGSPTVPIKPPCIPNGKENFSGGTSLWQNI
Mitogen-activated protein kinase 8 (Homo sapiens), sequence (P45983 whole entry): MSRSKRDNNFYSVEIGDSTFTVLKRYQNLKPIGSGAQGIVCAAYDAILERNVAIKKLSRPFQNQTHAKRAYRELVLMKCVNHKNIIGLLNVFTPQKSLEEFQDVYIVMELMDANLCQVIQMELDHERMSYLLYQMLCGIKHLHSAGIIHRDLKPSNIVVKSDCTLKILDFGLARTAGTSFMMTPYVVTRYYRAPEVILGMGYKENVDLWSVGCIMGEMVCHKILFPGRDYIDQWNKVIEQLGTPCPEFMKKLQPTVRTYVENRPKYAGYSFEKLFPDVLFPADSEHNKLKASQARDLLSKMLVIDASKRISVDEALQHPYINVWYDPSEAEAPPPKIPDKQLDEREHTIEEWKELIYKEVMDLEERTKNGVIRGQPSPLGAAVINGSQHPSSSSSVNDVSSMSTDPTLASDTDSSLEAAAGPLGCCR

As a reminder, the inhibition is the drop in the measured response relative to a control, in per cent. Consider `CCC[C@H]1CNCc2c1[nH]c(=O)c(C#N)c2N1CCC2(CC1)CC2`, for which the inhibition is -3.14% in assay [1]; -8.08% in assay [3]; 44.9% in assay [4]; -5% in [8]; 2.5% in [11]. The delta Tm Staurosporine positive control in [2] was determined as 7.45; in assay [5], 2.43; in assay [6], 17.5; in assay [7], 18.2; in [9] it was 5.57; in assay [10], 5.3. The ΔTm in assay [2] is -0.298; in [5], 0.404; in assay [6] it was -0.331; in [7], 0.118; in assay [9] it was -0.133; in assay [10], -0.402.
For `CCC[C@@H]1CNCc2c1[nH]c(=O)c(C#N)c2N1CCC2(CC1)CC2`, the inhibition is -5.05% in assay [1]; 5.97% in assay [3]; 33% in assay [4]; -4.19% in assay [8]; -0.07% in [11]. Moreover, the delta Tm Staurosporine positive control came to 7.45 in assay [2]; 2.43 in assay [5]; 17.5 in assay [6]; 18.2 in [7]; 5.57 in [9]; 5.3 in assay [10]. The ΔTm is -0.293 in [2]; 0.25 in [5]; -0.214 in assay [6]; -0.155 in assay [7]; -0.198 in assay [9]; -0.379 in assay [10].
